# Data: a melting point compilation (Tetko et al.; mined from patent text by program, amines drawn as free bases though some values may be those of a salt)
row,Compound,melting point [°C]
1,OCC1Cc2c(c(Cl)cc3c(-c4ccccc4Cl)noc23)O1 (stereo unspecified),162 to 163
2,Cc1cc(-c2[nH]c3ccc(C#N)cc3c2C)cc(C)c1O,185 to 186
3,Nc1cccc2c1-c1nc3ccccc3cc1CC2,138 to 140
4,Cc1ccc(Cc2cnc(NCCCCNc3ncccc3Cl)[nH]c2=O)cn1,180 to 182
5,O=C(Nc1ccccc1)c1ccc2c(c1)N(C1CC1)CNS2(=O)=O,232 to 234
6,COc1ccc2c(-c3ccc(OCCN4CCOCC4)cc3)c(Cc3ccc(Cl)cc3)oc2c1,126 to 128
7,COC1CC2(C)C(CCC3C4CCC(C(=O)CBr)C4(C)CC(=O)C32)CC1O (stereo unspecified),185 to 188
8,CCN(CC)C(=O)n1cnc(S(=O)(=O)CC2CCCCO2)n1 (stereo unspecified),122
9,Nc1cccc(Oc2ccc(C(=O)c3ccc(C#Cc4ccccc4)cc3)cc2)c1,137 to 139
10,CCNc1cccc(C#CCCn2nc3ccccc3n2)n1,73 to 78
11,C#Cc1ccc(=O)n(C(C)C)n1,103 to 104
12,COC(=O)c1c2n(c3ccccc13)Cc1ccccc1N1CCN(C)CC21 (stereo unspecified),157 to 159
13,COC(=O)Nc1ccc2ccccc2c1-c1c(P(c2ccccc2)c2ccccc2)ccc2ccccc12,92.1
14,COc1cccc(/C=C/c2nc3c(c(=O)n(C)c(=O)n3C)n2C)c1OC,234 to 237
15,O=C(CCCCN1CCCCC1)c1ccc2c(c1)Cc1cc(C(=O)CCCCN3CCCCC3)ccc1-2,124 to 127
16,CN(C)C=C1C(=O)N(c2cccc(Cl)c2)c2ccccc21,116 to 118
17,CCCn1c(=O)c(-c2ccccc2)c2n(c1=O)CCCS2(=O)=O,179 to 180
18,FC1=CC(c2cccnc2)=CC2CCC(=S)NC12 (stereo unspecified),235
19,COc1ccc(N2C(=O)C(O[Si](C(C)C)(C(C)C)C(C)C)C2c2ccc(F)cc2)cc1 (stereo unspecified),121 to 122
20,Fc1ccc(Nc2nc(-c3ccc(F)cc3)cs2)cc1,127
21,CC(C)CC1NCCNC1=O (stereo unspecified),75 to 77
22,CN1CCc2cc(-c3ccc4c(c3)CCN(CCN3CCCC3)C4=O)ccc2C1=O,225 to 226
23,O=C1COc2ccc3ccccc3c21,194 to 196

row,Compound,melting point [°C]
1,O=C1c2c(Cl)cccc2-n2cnc(C(=O)n3ccnc3)c2[C@@H]2CCCN12,240 to 242
2,Cc1cnccc1C#N,45 to 47
3,COCc1nc(N)nc(SC)n1,134 to 136
4,CC(Sc1nnnn1-c1ccccc1)C(=C(C#N)C#N)c1ccccc1 (stereo unspecified),145 to 146
5,CN(O)CCCCc1ccc2c(c1)C(=O)c1sccc1CO2,107 to 108
6,O=c1ccn2c(c1O)C(c1ccc(Br)cc1)OCC2 (stereo unspecified),200 to 212
7,CCN1CCN(Cc2ccc(-c3cc4c(NCc5ccc(OC)nc5)ncnc4[nH]3)cc2)CC1,305
8,O=C(Nc1ccc(N2C[C@H]3CN(C(=O)OCc4ccccc4)C[C@H]3C2)cc1)OCc1ccccc1,145 to 146
9,Cc1oc(-c2ccco2)nc1COc1ccc(C#N)cn1,105 to 106
10,COC(=O)CC[C@@H](Cc1ccc(OCc2ccccc2)cc1)NC(=O)CCCCCCc1ccccc1,94.8 to 95.9
11,CC(=O)SCC(C)C(=O)N(CC(=O)O)C1CCCCC1 (stereo unspecified),142 to 144
12,Cc1[nH]c(C=O)c(C)c1CCCCO,99
13,O=C(NC1(O)CC1)c1ccccc1,153 to 155
14,c1ccc2c(c1)SCCc1c-2n(Cc2ccc(OCCCN3CCCCC3)cc2)c2ccccc12,70 to 71
15,N#CC1=Cc2cc(Cl)ccc2OC1,124 to 126
16,COc1ccc(C2(C#Cc3ccc(NC(C)=O)cc3)CCC(=O)CC2)cc1OC1CCCC1,79 to 80
17,Cc1nc2c(n1Cc1ccccc1)CCCC2=O,115
18,CC1(COCC(COCC2(C)COC2)(COCC2(C)COC2)COCC2(C)COC2)COC1,108 to 110
19,CC(=O)N1C(=O)C=CC1=O,58
20,FC(F)(F)C1(c2cc(Cl)cc(Cl)c2)CC(c2ccc(Br)nc2)=NO1 (stereo unspecified),147 to 148
21,O=C(CCCCCBr)c1cc2c3c(c1)CC(=O)N3CCC2,86 to 87
22,O=C1CCC(C(=O)N2CCC(Cc3ccccc3)CC2)N1 (stereo unspecified),160 to 161

# The remaining lines, values ahead:
row,melting point [°C],Compound
1,74 to 75,CCCCCCCCCOc1cc([N+](=O)[O-])ccc1N
2,112 to 113,COc1c(C)c2c(c(O)c1C/C=C(\C)CCC(=O)N1C(=O)OC[C@@H]1Cc1ccccc1)C(=O)OC2
3,215,CCSc1nc2c(cc1F)c(=O)c(C(=O)O)cn2C(C)(C)C
4,57 to 58,CCCc1c(OCCCCCOc2ccc3c(c2CCC)OC(C(=O)OC)CC3)ccc(C(C)=O)c1O (stereo unspecified)
5,102 to 104,COc1ccc(C(CS(C)(=O)=O)N2C(=O)c3cccc(NC(C)=O)c3C2=O)cc1OCC1CC1 (stereo unspecified)
6,125 to 127,COC(=O)[C@@H]1C(=O)N(C)c2ccccc2C[C@H]1c1ccc2c(c1)OCO2 (racemic)
7,132 to 134,CC(C)(C)NC(=O)[C@@H]1C[C@H](Cl)CN1C(=O)[C@@H](O)[C@H](Cc1ccccc1)NC(=O)[C@H](CC(N)=O)NC(=O)c1cnc2ccccc2n1
8,113 to 114,CSc1ccc(C(=O)c2ccc(SC)cc2O)cc1
9,179 to 182,CC1(C)Cc2cccc(C(=O)O)c2S1
10,110 to 112,COc1ccc(C(=O)c2c(Cc3ccccc3)sc3cc(OC)ccc23)cc1
11,154 to 155,CCOC(=O)CCCNc1ccc2oc(-c3ccc4ccc(Cl)cc4n3)cc2c1
12,38 to 39,CCOC(=O)[C@H](Cc1cccc(OS(=O)(=O)C(F)(F)F)c1)NC(=O)C(F)(F)F
13,109 to 116,COC(=O)c1ccc(/C=C/c2cc3c(cc2CCCO)C(C)(C)CCC3(C)C)cc1
14,102 to 104,O=C(C=Cc1ccccc1)OCC#CC#CCOC(=O)C=Cc1ccccc1
15,87 to 88,O=C(O)CCC(O)c1ccc(-c2ccccc2)c(Cl)c1 (stereo unspecified)
16,260 to 275,Cc1ccc2c(-c3cnc4[nH]cc(C(=O)N[C@H](C)C(=O)N5CC(C#N)C5)c4n3)nn(C)c2c1
17,69,CSC(=C[N+](=O)[O-])NC(C)C(C)(C)C (stereo unspecified)
18,> 300,CSc1cnc2cc(-c3cccc(Cl)c3)sc2c1O
19,139 to 141,C/C(=C\C=C(c1ccccc1)c1ccccc1)C(=O)Oc1ccc([N+](=O)[O-])cc1

row,melting point [°C],Compound
1,173 to 175,COC(Cc1c(Br)cc(Br)c(N)c1Br)C(=O)O (stereo unspecified)
2,100,CCOc1ccc([N+](=O)[O-])c(Nc2ccc(C(C)C)cc2)c1
3,42.6 to 44.5,O=C1NC(=O)C(Cc2ccc(OCCc3c[nH]c4ccccc34)cc2)S1 (stereo unspecified)
4,152 to 153,CC(C)(C)c1cc(C(C)(C)C)n(Cc2ccc(COc3ccc(CCC(=O)O)c(F)c3)cc2)n1
5,81 to 84,CN(C(=O)OC(C)(C)C)c1cc(Oc2ccc(-c3nnn[nH]3)cc2)ccc1[N+](=O)[O-]
6,117 to 118,COc1ccc(C(NCC(=O)Nc2c(C(C)C)cccc2C(C)C)c2ccccc2)cc1 (stereo unspecified)
7,189 to 190,C#Cc1cccc(Nc2ncnc3[nH]cc(-c4cccc([N+](=O)[O-])c4)c23)c1
8,161 to 163,COC(=O)c1ccc(NS(C)(=O)=O)c(C=O)c1
9,177 to 178,CNC(=O)c1cc2ccc(OC)cc2n1CCNC(C)=O
10,257 to 258,CCCc1nnc2c(=O)n(C)c3ccc(C(F)(F)F)cc3n12
11,142 to 144,Cc1ccc2c(-c3ccccc3)c([N+](=O)[O-])oc2c1
12,138 to 139,CCOC(=O)C1=Cc2cc(C(F)(F)F)ccc2NC1C(F)(F)F (stereo unspecified)
13,160,CC(C)(C)OC(=O)C1CCN(C(=O)C2CN(c3ccc(C(=N)N)cc3)C(=O)O2)CC1 (stereo unspecified)
14,154 to 155,Cc1oc(COc2ccc(/C=C/CO)cc2)nc1-c1ccccc1
15,218 to 221,COc1ccc(-c2nc(O)c(-c3ccccc3)s2)cc1
16,165,CC[Si](CC)(CC)O[C@@H](C(=O)OC)[C@@H](NC(=O)OC(C)(C)C)c1ccc(C(N)=O)cc1
17,148 to 149,O=C(O)c1cn(Cc2cccc(Oc3ccccc3)c2)nc1-c1ccccc1
18,133 to 135,CCC(=O)CCC1(C(N)=O)c2ccccc2-c2ccccc21
19,124 to 126,CC(C)(C)ONC(=O)Oc1ccccc1

row,melting point [°C],Compound
1,145 to 148,CC(C)(COc1ccc(O)c(C(N)=O)c1)[N+](=O)[O-]
2,163 to 169,CC(NC(Nc1cc(Cl)cc(Cl)c1)=C(C#N)S(=O)(=O)c1ccc(Cl)cc1)C(C)(C)C (stereo unspecified)
3,77 to 78,CC(C)(C)OC(=O)CN(Cc1ccccn1)c1cc(C(F)(F)F)c(Br)c(C(F)(F)F)c1
4,75 to 76,Cc1cccc2cc3c(=O)n(CCOC(=O)NCCN(C)C)cc(C(=O)NCCN(C)C)c3nc12
5,190 to 195,CC(=O)OCc1nc2cc(Cl)c(CBr)cc2c(=O)[nH]1
6,195 to 196,C#CCc1c(C)nc2c(NCc3c(C)cccc3NC(=O)CO)cccn12
7,135 to 136,COC(=O)CCCC(=O)c1cc2c(c(S(N)(=O)=O)c1)OCC2
8,156 to 158,COCCOc1cc2cc(C(=O)OC)c(C(=O)OC)c(-c3ccncc3)c2cc1OC
9,111 to 114,O=C(O)CCCCc1cc(O)c(O)cc1[N+](=O)[O-]
10,184,CCOCc1nc2c(c3cc(OCc4ccccc4)ccc3n3nnnc23)n1CC(C)C
11,180,CN1C(=O)CN(c2cccc(I)c2)NC1=O
12,198 to 200,NC(=O)c1nnn(Cc2cc(Cl)c(C(=O)c3ccc(Cl)cc3)c(Cl)c2)c1N
13,> 280,CNC(=O)c1cc2c(Oc3ccc(C4=NCCN4)cc3)cncc2s1
14,68 to 71,CC1(C)[C@@H](C(=O)Nc2cc(C(F)(F)F)n[nH]2)[C@@H]1c1ccccc1 (relative stereo)
15,75 to 79,CCn1c(C)nc2cc(S(C)(=O)=O)c(Cl)c([N+](=O)[O-])c21
16,132,Cc1cc(C)c(C#N)c(SSc2ccc([N+](=O)[O-])cc2C(Cl)(Cl)Cl)n1
17,190 to 194,CCCc1c(OCc2ccc3ncc(CCC(=O)O)c(=O)n3c2)ccc(C(C)=O)c1O
18,270 to 274,COc1ccc(-c2ccc(C(=O)O)cc2)cc1-c1cccc([N+](=O)[O-])c1
